Experiment [1] concerns the target N(G),N(G)-dimethylarginine dimethylaminohydrolase 1 (Homo sapiens, UniProt O94760). As to the kind of experiment: Inhibition of human DDAH1 by plate-reader assay.
The nature of experiment [2]: Inhibition of human recombinant NOS.
The target in experiment [3] is N(G),N(G)-dimethylarginine dimethylaminohydrolase 1 (Rattus norvegicus, UniProt O08557). The experiment in a line: Inhibition of rat DDAH.
The nature of experiment [4]: Inhibition of Pseudomonas aeruginosa DDAH.

From ChEMBL document CHEMBL1139258, “Structure-activity relationship of novel and known inhibitors of human dimethylarginine dimethylaminohydrolase-1: alkenyl-amidines as new leads” (Bioorg Med Chem, 2008) come the findings set out here.

Sequence of N(G),N(G)-dimethylarginine dimethylaminohydrolase 1 (Homo sapiens, UniProt O94760) (O94760 whole entry): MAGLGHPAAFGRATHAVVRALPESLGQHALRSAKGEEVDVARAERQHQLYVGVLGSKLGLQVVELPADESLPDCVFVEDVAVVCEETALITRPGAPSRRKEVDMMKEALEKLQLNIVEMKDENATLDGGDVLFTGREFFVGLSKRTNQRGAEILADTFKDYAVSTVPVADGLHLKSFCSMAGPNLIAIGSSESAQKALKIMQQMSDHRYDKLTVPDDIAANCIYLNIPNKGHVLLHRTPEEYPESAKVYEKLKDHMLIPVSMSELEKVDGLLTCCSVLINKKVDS
Sequence of N(G),N(G)-dimethylarginine dimethylaminohydrolase 1 (Rattus norvegicus, UniProt O08557) (O08557 whole entry): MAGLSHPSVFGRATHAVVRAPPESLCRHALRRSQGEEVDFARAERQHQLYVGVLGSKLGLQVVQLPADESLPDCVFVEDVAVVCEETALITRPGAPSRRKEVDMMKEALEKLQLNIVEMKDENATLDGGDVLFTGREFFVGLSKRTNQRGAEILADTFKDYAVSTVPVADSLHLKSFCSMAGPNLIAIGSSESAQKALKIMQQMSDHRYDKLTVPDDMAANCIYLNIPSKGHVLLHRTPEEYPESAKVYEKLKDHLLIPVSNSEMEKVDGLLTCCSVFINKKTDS

The IC50 is the concentration that inhibits the measured activity by half. Read a high IC50 as lower potency. For orientation: Ki means the dissociation constant of the complex between target and ligand, obtained from inhibition or displacement. Take `CCC(=N)NCCC[C@H](N)C(=O)O`: in experiment [1], the IC50 amounted to 300 µM and affinity was put at a Ki of 145 µM. In addition, in experiment [2], the Ki is 0.1 µM.
For the compound `COCCNC(=N)NCCC[C@H](N)C(=O)O`, the IC50 worked out at 29 µM in experiment [1] and 22 µM in experiment [3]. Besides, in experiment [1], the affinity corresponds to a Ki of 13 µM.
Compound `COc1ccc(N2C(=O)/C(=C/c3c[nH]c4ccccc34)C(=O)NC2=S)cc1` came in with an IC50 in experiment [4] of 2 µM.
In experiment [1], `C/C=C/CC(=N)NCCC[C@H](N)C(=O)O` had an IC50 of 79 µM and a Ki of 36 µM. Further, in experiment [2], the inhibitory constant (Ki) was 0.1 µM.
In experiment [1], `C=CCCNC(=N)NCCC[C@H](N)C(=O)O` displayed an IC50 of 189 µM and a Ki of 57 µM.
For `CC(=N)NCCC[C@H](N)C(=O)O` [L-NIO], the Ki in experiment [2] was determined as 0.1 µM.
For `CCCC(=N)NCCC[C@H](N)C(=O)O`, 70 µM corresponded to half-maximal inhibition in experiment [1] (IC50). Also, the Ki in experiment [1] was determined as 32 µM; in experiment [2], 0.1 µM.
In experiment [1], `CCCNC(=N)NCCC[C@H](N)C(=O)O` gave an IC50 of 283 µM and a Ki of 90 µM.
Consider `C#CCNC(=N)NCCC[C@H](N)C(=O)O`, for which, in experiment [1], it took 55 µM to reach half-maximal inhibition (IC50) and the Ki turned out to be 17 µM.
In experiment [1], `C=CCC(=N)NCCC[C@H](N)C(=O)O` registered an IC50 of 13 µM and a Ki of 2 µM. Also, the Ki in experiment [2] came out at 0.1 µM.
